#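 Five compound concentrations were applied to cells in 96-well plates for 48 hours; endpoints were derived by simple linear interpolation of the resulting dose-response curve. GI50 = concentration required for 50% inhibition of growth.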 Calls of active or inactive are those of the source. Cut-off read from the data, not from the text of the source: active = GI50 up to about 1.1 µM and inactive = higher.
# How the values were obtained:
# Experiment in all cases: DTP human tumour cell line panel, 48 h
# 786-0 = test system: 786-0
# HCT-116 = test system: HCT-116
# CCRF-CEM = test system: CCRF-CEM
# HOP-92 = test system: HOP-92
# T47D = test system: T47D
# MDA-MB-435 = test system: MDA-MB-435
# SN12C = test system: SN12C
# UACC-257 = test system: UACC-257
# IGROV-1 = test system: IGROV-1
# RPMI-8226 = test system: RPMI-8226
# SNB-19 = test system: SNB-19
# Malme-3M = test system: Malme-3M
# SW-620 = test system: SW-620
# Hs-578T = test system: Hs-578T
# HCC 2998 = test system: HCC 2998
# SK-MEL-2 = test system: SK-MEL-2
# HOP-62 = test system: HOP-62
# NCI-H23 = test system: NCI-H23
# HT-29 = test system: HT-29
# SNB-75 = test system: SNB-75
# NCI-H226 = test system: NCI-H226
# SF-295 = test system: SF-295
# M14 = test system: M14
# NCI/ADR-RES = test system: NCI/ADR-RES
# TK-10 = test system: TK-10
# MCF7 = test system: MCF7
# RXF 393 = test system: RXF 393
# A498 = test system: A498
# ACHN = test system: ACHN
# SF-539 = test system: SF-539
# HL-60 = test system: HL-60
# OVCAR-5 = test system: OVCAR-5
# DU-145 = test system: DU-145
# U-251 = test system: U-251
# PC-3 = test system: PC-3
# UACC-62 = test system: UACC-62
# CAKI-1 = test system: CAKI-1
# EKVX = test system: EKVX
# MDA-N = test system: MDA-N
# OVCAR-8 = test system: OVCAR-8
# NCI-H522 = test system: NCI-H522
# OVCAR-4 = test system: OVCAR-4
# OVCAR-3 = test system: OVCAR-3
# SK-MEL-28 = test system: SK-MEL-28
# SR = test system: SR
# COLO 205 = test system: COLO 205
# K562 = test system: K562
# SF-268 = test system: SF-268
# HCT-15 = test system: HCT-15
# BT-549 = test system: BT-549
# SK-MEL-5 = test system: SK-MEL-5
# LOX IMVI = test system: LOX IMVI
# MDA-MB-231 = test system: MDA-MB-231
# NCI-H460 = test system: NCI-H460
# MOLT-4 = test system: MOLT-4
# A549 = test system: A549
smiles,measurement,setting,value
CCOP(=O)(Nc1ccc2oc(=O)c3ccccc3c2c1)OCC,GI50,786-0,76.7 µM (inactive)
same,GI50,HCT-116,66.2 µM (inactive)
same,GI50,CCRF-CEM,51.3 µM (inactive)
same,GI50,HOP-92,24.6 µM (inactive)
same,GI50,T47D,35.3 µM (inactive)
same,GI50,MDA-MB-435,> 100 µM (inactive)
same,GI50,SN12C,> 100 µM (inactive)
same,GI50,UACC-257,> 100 µM (inactive)
same,GI50,IGROV-1,48 µM (inactive)
same,GI50,RPMI-8226,21.2 µM (inactive)
same,GI50,SNB-19,84.1 µM (inactive)
same,GI50,Malme-3M,> 100 µM (inactive)
same,GI50,SW-620,> 100 µM (inactive)
same,GI50,Hs-578T,19.8 µM (inactive)
same,GI50,HCC 2998,88.5 µM (inactive)
same,GI50,SK-MEL-2,62.5 µM (inactive)
same,GI50,HOP-62,62.1 µM (inactive)
same,GI50,NCI-H23,> 100 µM (inactive)
same,GI50,HT-29,63.2 µM (inactive)
same,GI50,SNB-75,66.2 µM (inactive)
same,GI50,NCI-H226,41 µM (inactive)
same,GI50,SF-295,> 100 µM (inactive)
same,GI50,M14,> 100 µM (inactive)
same,GI50,NCI/ADR-RES,71.1 µM (inactive)
same,GI50,TK-10,49.1 µM (inactive)
same,GI50,MCF7,14.2 µM (inactive)
same,GI50,RXF 393,91.2 µM (inactive)
same,GI50,A498,27.5 µM (inactive)
same,GI50,ACHN,33.2 µM (inactive)
same,GI50,SF-539,> 100 µM (inactive)
same,GI50,HL-60,19.4 µM (inactive)
same,GI50,OVCAR-5,80.4 µM (inactive)
same,GI50,DU-145,92.7 µM (inactive)
same,GI50,U-251,75.2 µM (inactive)
same,GI50,PC-3,27.8 µM (inactive)
same,GI50,UACC-62,48.1 µM (inactive)
same,GI50,CAKI-1,26.2 µM (inactive)
same,GI50,EKVX,46 µM (inactive)
same,GI50,MDA-N,97.5 µM (inactive)
same,GI50,OVCAR-8,> 100 µM (inactive)
same,GI50,NCI-H522,68.9 µM (inactive)
same,GI50,OVCAR-4,60.1 µM (inactive)
same,GI50,OVCAR-3,45.2 µM (inactive)
same,GI50,SK-MEL-28,> 100 µM (inactive)
same,GI50,SR,31.7 µM (inactive)
same,GI50,COLO 205,> 100 µM (inactive)
same,GI50,K562,38.1 µM (inactive)
same,GI50,SF-268,56.6 µM (inactive)
same,GI50,HCT-15,79.8 µM
same,GI50,BT-549,15.2 µM (inactive)
same,GI50,SK-MEL-5,28.6 µM (inactive)
same,GI50,LOX IMVI,47.5 µM (inactive)
same,GI50,MDA-MB-231,38.4 µM (inactive)
same,GI50,NCI-H460,> 100 µM (inactive)
same,GI50,MOLT-4,54.8 µM (inactive)
same,GI50,A549,41.9 µM (inactive)

# Reference: ChEMBL document CHEMBL1201862, “PubChem BioAssay data set” (2004)
